Measurements published in patent US20120041071A1, “[…] TREATING PAIN DUE TO OSTEOARTHRITIS” (Gruenenthal GmbH, priority 2007, published 2012).

Assays:
[1] = system: moderate to severe pain due to arthrosis of the knee; experiment: Randomised, placebo-controlled double-blind study, tapentadol PR vs oxycodone HCl CR, 28 days (Example 1); type: in vivo, human; details: compared with oxycodone
Description: The efficacy and tolerability of tapentadol with prolonged release (prolonged release (PR)) and oxycodone HCl with controlled release (controlled release (CR)) were compared with a placebo in patients with moderate to severe pain due to arthrosis of the knee.
Patients (N=670) were randomly selected and treated over 28 days twice with tapentadol PR 100 mg, with tapentadol PR 200 mg, with oxycodone HCl CR 20 mg or with a placebo. The dose was titrated at the start of the treatment. The primary efficacy endpoint was the average perception of pain during the preceding 24 hours at the time of the last medical examination (final visit) based on a visual analog 100-mm sale (VAS, 0 mm=no pain, 100 mm=worst pain imaginable)).
The study consisted of a 14-day, double-blind titration phase (3 days->11 days) followed by a 14-day double-blind maintenance phase (at the highest dose of the titration scheme in each case; see FIG. 1):
tapentadol PR 100 mg: 25 mg (bid)->50 mg (bid)->100 mg (bid);
tapentadol PR 200 mg: 100 mg (bid)->150 mg (bid)->200 mg (bid);
oxycodone HCl CR 20 mg: 10 mg (bid)->10 mg (bid)->20 mg (bid).

[2] = target: recombinantly produced μ-opioid receptor (Homo sapiens, UniProt P35372); experiment: Affinity to recombinantly produced μ-opioid receptor; type: binding; details: in humans; relative to morphine
Chain of recombinantly produced μ-opioid receptor (P35372 whole entry): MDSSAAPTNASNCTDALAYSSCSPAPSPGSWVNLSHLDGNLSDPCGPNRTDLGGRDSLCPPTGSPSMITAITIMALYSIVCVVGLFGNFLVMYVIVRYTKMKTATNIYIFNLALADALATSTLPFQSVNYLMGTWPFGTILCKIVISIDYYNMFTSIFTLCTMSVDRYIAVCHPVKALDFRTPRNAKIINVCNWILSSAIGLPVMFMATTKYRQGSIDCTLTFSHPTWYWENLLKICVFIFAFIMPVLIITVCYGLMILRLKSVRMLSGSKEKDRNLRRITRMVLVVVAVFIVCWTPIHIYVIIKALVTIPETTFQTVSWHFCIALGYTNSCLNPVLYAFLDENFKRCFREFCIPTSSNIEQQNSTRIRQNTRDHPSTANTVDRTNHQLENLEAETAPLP

[3] = system: pain; experiment: Clinical studies of pain-alleviating action compared with morphine; type: in vivo, human

CC[C@@H](c1cccc(O)c1)[C@@H](C)CN(C)C [tapentadol, (−)-(1R,2R)-3-(3-dimethylamino-1-ethyl-2-methyl-propyl)-phenol]
tolerability with respect to gastrointestinal and central nervous system side effects [1]: better tolerated than oxycodone
affinity to the recombinantly produced μ-opioid receptor, times less than that of morphine [2]: 18 times
pain-alleviating action relative to morphine [3]: two to three times less than that of morphine
